In paper PMC10657444, “Design and evaluation of tadpole-like conformational antimicrobial peptides” (Communications Biology, 2023):
In brackets after ≈: the same amount, converted by molar mass. Residues, ends and D or L forms follow the SMILES beside them.

Columns and labels:
MRSA 3393 = type: cell-based, Staphylococcus aureus; settings: 3393
Source text: (§1) Bacteria were cultivated in Luria-Bertani (LB) broth.

MRSA ATCC 43300 = type: cell-based, Staphylococcus aureus; settings: ATCC 43300
Source text: as §1

MRSA USA 300 [1] = type: cell-based, Staphylococcus aureus
Source text: as §1

MRSA USA 300 [2] = experiment: Membrane depolarization assay, DiSC3(5); type: cell-based, Staphylococcus aureus
Protocol: MRSA USA 300 and K. pneumoniae ATCC 700603 were inoculated into 5 mL of LB and shaken at 37°C and 225 rpm to OD600 ≈ 0.5 (i.e., mid-logarithmic phase). Bacteria were collected by centrifugation at 8000 rpm for 5 min, and washed twice with assay buffer (5 mM HEPES, 20 mM glucose, 10 mM KCl, pH 7.2). Bacteria were resuspended in the assay buffer to OD595 ≈ 0.1. DiSC3(5) was added to the cells at final concentration of 0.3 µM, wrapped with aluminum foil, and incubated at 37°C, until a stable fluorescence was observed. Two microliter of compound or DMSO were transferred into 96-well black walled polystyrene plates, to which was added 98 µL per well of the dye-saturated bacterial cells to initiate the reaction. The final concentration of HT2 and RI-HT2 were 1 ×, 2 ×, 4 × and 8 × MIC. Plates were immediately read on an Envison at λex = 622 nm/ λem = 670 nm with a kinetic program (reading every 1 min for 10 min) until the maximal intensity achieved was observed.

MRSA USA 300 [3] = experiment: microbe, parasite or virus in culture; type: cell-based, Staphylococcus aureus
Protocol: (§2) MRSA USA 300 and K. pneumoniae ATCC 700603 were employed to assess the development of resistance. From inoculated microtiter panels, an aliquot of the well with the highest concentration permitting growth was taken and back diluted in fresh media to a turbidity of a 0.5 McFarland standard. This suspension was then further diluted and used to inoculate a fresh MIC panel resulting in a final concentration of 5 × 10^6 CFU/mL. Panels were incubated according to CLSI guidelines (M07, 11th edition, 2018), MICs were recorded and the next inoculum was prepared from the well containing the highest concentration of drug that allowed growth in identical fashion as described above.

[4] = tested on: K. pneumoniae ATCC 700603; experiment: microbe, parasite or virus in culture; type: cell-based, Klebsiella pneumoniae
Protocol: as §2

MRSA USA 300 [5] = experiment: Scanning electron microscopy; type: cell-based, Staphylococcus aureus; settings: 2 × MIC, 60 min
Protocol: (§3) Mid-log phase bacteria (MRSA USA 300 and K. pneumoniae ATCC 700603) grown in LB broth were adjusted to a density of 5 × 10^6 CFU/mL. […] All samples were centrifuged at 8000 rpm for 5 min, washed and then resuspended in PBS. Bacterial cells were fixed with 2.5% glutaraldehyde, and then incubated at 37°C on a glass slide for 20 min. Samples were dehydrated by passing through gradient ethanol (10%, 30%, 50%, 70%, 90%, and 100%) for 5 min at each concentration. Slides were dried with an automatic critical point drying instrument (Leica EM CPD300), and a small amount of gold was sputtered onto the samples using a sputter coater system to avoid charging in the microscope. Finally, the bacteria were visualized under a field-emission scanning electron microscopy (FESEM) device (Sirion 200).

[6] = tested on: K. pneumoniae ATCC 700603; experiment: Scanning electron microscopy; type: cell-based, Klebsiella pneumoniae; settings: 2 × MIC, 60 min
Protocol: as §3

CC[C@H](C)[C@H](NC(=O)[C@H](CCCNC(=N)N)NC(=O)[C@H](CCCNC(=N)N)NC(=O)[C@H](CC(C)C)NC(=O)[C@H](Cc1ccccc1)NC(=O)[C@@H](N)CCCNC(=N)N)C(=O)N[C@@H](Cc1ccccc1)C(=O)N[C@@H](Cc1ccccc1)C(=O)N[C@@H](Cc1ccccc1)C(=O)N[C@@H](Cc1ccccc1)C(N)=O [HT2] (H-RFLRRIFFFF-NH2)
MIC Gram+ MRSA 3393 (MRSA 3393): 1.57 µM (≈ 2.27 µg/mL)
MIC Gram+ MRSA ATCC 43300 (MRSA ATCC 43300): 1.57 µM (≈ 2.27 µg/mL)
MIC Gram+ MRSA USA 300 (MRSA USA 300 [1]): 1.57 µM (≈ 2.27 µg/mL)
concentration at which DiSC3(5) fluorescence intensity changed significantly (MRSA USA 300 [2]): 4 × MIC
Concentration (MIC in drug resistance assay) (MRSA USA 300 [3]; MRSA USA 300, day 0): 3.125 µg/mL
Concentration (MIC in drug resistance assay) (MRSA USA 300 [3]; MRSA USA 300, day 1): 3.125 µg/mL
Concentration (MIC in drug resistance assay) (MRSA USA 300 [3]; MRSA USA 300, day 2): 3.125 µg/mL
Concentration (MIC in drug resistance assay) (MRSA USA 300 [3]; MRSA USA 300, day 3): 3.125 µg/mL
Concentration (MIC in drug resistance assay) (MRSA USA 300 [3]; MRSA USA 300, day 11): 3.125 µg/mL
Concentration (MIC in drug resistance assay) (MRSA USA 300 [3]; MRSA USA 300, day 13): 3.125 µg/mL
Concentration (MIC in drug resistance assay) (MRSA USA 300 [3]; MRSA USA 300, day 22): 12.5 µg/mL
Concentration (MIC in drug resistance assay) (MRSA USA 300 [3]; MRSA USA 300, day 26): 12.5 µg/mL
Concentration (MIC in drug resistance assay) (MRSA USA 300 [3]; MRSA USA 300, day 27): 12.5 µg/mL
Concentration (MIC in drug resistance assay) (MRSA USA 300 [3]; MRSA USA 300, day 28): 12.5 µg/mL
Concentration (MIC in drug resistance assay) (MRSA USA 300 [3]; MRSA USA 300, day 29): 12.5 µg/mL
Concentration (MIC in drug resistance assay) (MRSA USA 300 [3]; MRSA USA 300, day 32): 12.5 µg/mL
Concentration (MIC in drug resistance assay) (MRSA USA 300 [3]; MRSA USA 300, day 33): 12.5 µg/mL
Concentration (MIC in drug resistance assay) (MRSA USA 300 [3]; MRSA USA 300, day 34): 12.5 µg/mL
Concentration (MIC in drug resistance assay) (MRSA USA 300 [3]; MRSA USA 300, day 35): 12.5 µg/mL
Concentration (MIC in drug resistance assay) (MRSA USA 300 [3]; MRSA USA 300, day 37): 12.5 µg/mL
Concentration (MIC in drug resistance assay) (MRSA USA 300 [3]; MRSA USA 300, day 38): 12.5 µg/mL
Concentration (MIC in drug resistance assay) (MRSA USA 300 [3]; MRSA USA 300, day 39): 12.5 µg/mL
Concentration (MIC in drug resistance assay) (MRSA USA 300 [3]; MRSA USA 300, day 40): 12.5 µg/mL
increase in MIC after 40 passages (MRSA USA 300 [3]; serial passage at sub-MIC): four-fold
Concentration (MIC in drug resistance assay) ([4]; K. pneumoniae ATCC 700603, day 0): 6.25 µg/mL
Concentration (MIC in drug resistance assay) ([4]; K. pneumoniae ATCC 700603, day 1): 6.25 µg/mL
Concentration (MIC in drug resistance assay) ([4]; K. pneumoniae ATCC 700603, day 2): 6.25 µg/mL
Concentration (MIC in drug resistance assay) ([4]; K. pneumoniae ATCC 700603, day 3): 12.5 µg/mL
Concentration (MIC in drug resistance assay) ([4]; K. pneumoniae ATCC 700603, day 4): 12.5 µg/mL
Concentration (MIC in drug resistance assay) ([4]; K. pneumoniae ATCC 700603, day 5): 6.25 µg/mL
Concentration (MIC in drug resistance assay) ([4]; K. pneumoniae ATCC 700603, day 6): 6.25 µg/mL
Concentration (MIC in drug resistance assay) ([4]; K. pneumoniae ATCC 700603, day 7): 6.25 µg/mL
Concentration (MIC in drug resistance assay) ([4]; K. pneumoniae ATCC 700603, day 8): 6.25 µg/mL
Concentration (MIC in drug resistance assay) ([4]; K. pneumoniae ATCC 700603, day 9): 6.25 µg/mL
Concentration (MIC in drug resistance assay) ([4]; K. pneumoniae ATCC 700603, day 10): 12.5 µg/mL
Concentration (MIC in drug resistance assay) ([4]; K. pneumoniae ATCC 700603, day 11): 12.5 µg/mL
Concentration (MIC in drug resistance assay) ([4]; K. pneumoniae ATCC 700603, day 12): 12.5 µg/mL
Concentration (MIC in drug resistance assay) ([4]; K. pneumoniae ATCC 700603, day 13): 12.5 µg/mL
Concentration (MIC in drug resistance assay) ([4]; K. pneumoniae ATCC 700603, day 14): 25 µg/mL
Concentration (MIC in drug resistance assay) ([4]; K. pneumoniae ATCC 700603, day 15): 25 µg/mL
Concentration (MIC in drug resistance assay) ([4]; K. pneumoniae ATCC 700603, day 16): 25 µg/mL
Concentration (MIC in drug resistance assay) ([4]; K. pneumoniae ATCC 700603, day 17): 25 µg/mL
Concentration (MIC in drug resistance assay) ([4]; K. pneumoniae ATCC 700603, day 18): 12.5 µg/mL
Concentration (MIC in drug resistance assay) ([4]; K. pneumoniae ATCC 700603, day 19): 25 µg/mL
Concentration (MIC in drug resistance assay) ([4]; K. pneumoniae ATCC 700603, day 20): 25 µg/mL
Concentration (MIC in drug resistance assay) ([4]; K. pneumoniae ATCC 700603, day 21): 25 µg/mL
Concentration (MIC in drug resistance assay) ([4]; K. pneumoniae ATCC 700603, day 22): 12.5 µg/mL
Concentration (MIC in drug resistance assay) ([4]; K. pneumoniae ATCC 700603, day 23): 25 µg/mL
Concentration (MIC in drug resistance assay) ([4]; K. pneumoniae ATCC 700603, day 24): 50 µg/mL
Concentration (MIC in drug resistance assay) ([4]; K. pneumoniae ATCC 700603, day 25): 25 µg/mL
Concentration (MIC in drug resistance assay) ([4]; K. pneumoniae ATCC 700603, day 26): 25 µg/mL
Concentration (MIC in drug resistance assay) ([4]; K. pneumoniae ATCC 700603, day 27): 25 µg/mL
Concentration (MIC in drug resistance assay) ([4]; K. pneumoniae ATCC 700603, day 28): 25 µg/mL
Concentration (MIC in drug resistance assay) ([4]; K. pneumoniae ATCC 700603, day 29): 25 µg/mL
Concentration (MIC in drug resistance assay) ([4]; K. pneumoniae ATCC 700603, day 30): 50 µg/mL
Concentration (MIC in drug resistance assay) ([4]; K. pneumoniae ATCC 700603, day 31): 25 µg/mL
Concentration (MIC in drug resistance assay) ([4]; K. pneumoniae ATCC 700603, day 32): 25 µg/mL
Concentration (MIC in drug resistance assay) ([4]; K. pneumoniae ATCC 700603, day 33): 25 µg/mL
Concentration (MIC in drug resistance assay) ([4]; K. pneumoniae ATCC 700603, day 34): 12.5 µg/mL
Concentration (MIC in drug resistance assay) ([4]; K. pneumoniae ATCC 700603, day 35): 25 µg/mL
Concentration (MIC in drug resistance assay) ([4]; K. pneumoniae ATCC 700603, day 36): 25 µg/mL
Concentration (MIC in drug resistance assay) ([4]; K. pneumoniae ATCC 700603, day 37): 50 µg/mL
Concentration (MIC in drug resistance assay) ([4]; K. pneumoniae ATCC 700603, day 38): 25 µg/mL
Concentration (MIC in drug resistance assay) ([4]; K. pneumoniae ATCC 700603, day 39): 25 µg/mL
Concentration (MIC in drug resistance assay) ([4]; K. pneumoniae ATCC 700603, day 40): 25 µg/mL
increase in MIC after 40 passages ([4]; serial passage at sub-MIC): four-fold
cell surface morphology by SEM (in words) (MRSA USA 300 [5]): rough, shrunken, wrinkled and partially damaged
cell surface morphology by SEM (in words) [6]: rough, shrunken, wrinkled and partially damaged
